Publication PMC12261321, “Inhibitors of the Bacterioferritin Ferredoxin Complex Dysregulate Iron Homeostasis and Kill and Biofilm-Embedded Cells” (ACS Infectious Diseases, 2025)
≈ marks a conversion by molar mass, not a printed value.

How the values were obtained:
[1] = Stability in aqueous solution; assay type: physicochemical
[2] = Determination of compound aqueous solubility in M63 media; assay type: physicochemical; conditions: in M63 media at 35 °C
Method: Determination of Compound Aqueous Solubility. Compound stocks (100 mM in DMSO) were prepared from […]
powder and then further diluted with DMSO to prepare 20 mM working solutions, which were diluted as needed […]
in DMSO. 15 µL o f the DMSO solution was then d iluted to a final volume o f 1.0 mL in M63 media. Six solutions […]
were prepared for each compound, each with a distinct concentration and 1.5% DMSO (v/v). 700 µL of each […]
compound solution was transferred to a polystyrene 48-well plate (VWR), followed by acquisition of UV-vis […]
spectra (300 to 700 nm) with the aid of an Epoch 2 microplate reader (B i o Te k ). […]
Following the acquisition of UV-vis spectra, each of the wells in the plate was inspected under a […]
microscope for evidence of precipitation. Evidence of precipitation at any given concentration was determined by observing a shift in the baseline of the UV-vis spectra relative to the blank (M63 media) and/or evidence of visual precipitation with the aid of a micros cope. […]

A. baumannii ATCC 17978 = assay: MIC, broth microdilution in M63 media; assay type: cell-based
Method: (§1) Measurement of Minimum Inhibitory Concentrations (MIC). The MIC of compounds and select ed antibiotics against three strains of A. baumannii (5075, ATCC 17988, and ATCC 19606) were determined via the broth microdilution method according to Clinical and Laboratory Standard Instit ute (CLSI) guidelines,15 but culturing […]
(§2) To establish a 2-fold dilution series of compound, 985 μ L of diluted cells was mixed with 15 μ L of compound […]
(§3) dissolved in DMSO, such that the resultant solution had the highest concentration of compound or antibiotic tested and 1.5% DMSO. To carry out the serial dilution from the highest compound concentration, a 150 μ L solution of higher concentration compound or antibiotic was mixed with 150 μ L of cell suspension containing 1.5% DMSO in the wells of a 96 well plate.
(§4) Th e 96 well plate was in cubated for 20 hat 35 °C with continuous orbital shaking (205 cpm) in an Epoch2 microplate reader (BioTek), monitoring the growth by […]
(§5) following the OD600. […]
(§6) FFFFFF = MMMMMMAA iiii ccllccbbiiiicccciilliiMMMMMMAA+ MMMMMMBB iiii ccllccbbiiiicccciilliiMMMMMMBB S2 Time Kill Assays. Time-kill assays were performed with A. baumannii 507 5 by the broth macro- dilution method in M63- medium containing 1.5% DMSO. An overnight culture was diluted to approximately 5 x10^5 CFU/mL in fresh M63 media. The test solutions were prepared by adding compound (KM-5- 35, or KM-5- 25) dissolved in DMSO to 5 mL of diluted cell suspension to yield a solution of the desired compound concentration and 1.5% DMSO, or by the addition of antibiotic dissolved in water and a small volume of DMSO to produce the desired

A. baumannii ATCC 19606 = assay: MIC, broth microdilution in M63 media; assay type: cell-based
Method: as §1, §2, §3, §4, §5, §6

A. baumannii 5075 [3] = assay: MIC, broth microdilution in M63 media; assay type: cell-based
Method: as §1, §2, §3, §4, §5, §6

recombinant Pa BfrB = molecular target: T1, recombinant Pa BfrB (Pseudomonas aeruginosa, UniProt Q9HY79); assay: Dissociation constant (Kd), fluorescence quenching titration of apo Pa BfrB; assay type: binding, P. aeruginosa
T1 construct: made in house; host or cells: E. coli
Method: Measurement of Dissociation Constant (Kd) R ecombinant Pa BfrB was expressed in E. coli and purified as previously reported.19 Apo-BfrB (devoid of heme) was utilized for the measurements to prevent heme-driven fluorescence quenching. A 0.5 mL solution contai ning 0.01 µM apo Pa-BfrB in PBS (pH = 7.4) containing0.5% DMSO was plac ed into a 1 cm quartz cuvette wh ere it was titrated with aliq uots of compound dissolved in a 50% (v/v) PBS/DMSO solution. The fluorescence quenching brought by the addition of each aliquot was monitored with the aid of an Agilent Cary Fluorometer , with excitation at 280 nm, emission at 320- 470 nm, 10 x10 nm slit width, and an average of 5 scans per spectrum. Th e binding assay included at least 8 aliquots spanning from ~ 0.1 […]
A control titration was carried out by titrati ng compound into PBS buffer. The Kd was cal culated by fitting the data to equation S4, w here Fb is the fraction bound and Fmax is the fraction bound at saturating compound concentration.
FFbb = FFmmmmmm ? [ccccmmccccccmmcc ]? (S4) […]

P. aeruginosa PAO1 = assay: Half maximal inhibitory concentration (IC50), planktonic growth (CFU/mL); assay type: cell-based; conditions: M63 media, 18 h
Method: Measurement of Half Maximal Inhibitory Concentration (IC50). IC50 values were determined as reported earlier13 with some modifications. Compound stock solutions in DMSO (100 mM and 10 mM) were prepared from powd er. To prep are the cell susp ensions utilized in the measu rements, starter cultures o f P. aeru ginosa wer e diluted to an optical density at 600 nm (OD600) = 0.005 in fresh LB media (5 mL) and then cultured at 37°C and 220 rpm for 4 h prior to diluting to an OD600 = 0.0001 in M63. A small volume of compound stock solution w as further diluted in DMSO to 30 µL and then diluted in M63 cell suspension to a final volume of 2.0 mL. The resultant solution was placed in a well of a 96-well plate and then serially 2-fold diluted in M63 cell suspension to produce 6 distinct com pound concent rations, each with 1.5% DMSO. Th e plate was co ver ed and incubated for 18 h at 35 °C in a Synergy H1 plate reader (Biotek). The resultant cell cultures were serially diluted in PBS and then plated on PI Agar plates (PIA; BD biosciences) for counting viable cells (CFU/mL). The % growth was calculated from the ratio CFU/mL(t reat ed )/CFU/mL(untreated control). To calculate the IC50 values, the % growth was plotted as a function of compound concentration expressed as log[compound] ( µM), and fitted to equation S1 describing the sigmoid- shaped response pattern, 14 where b is the slope factor, max is the upper asymptote (plateau), and min is the lower asymptote. IC 50 values are the average and standard deviation from three independent experiments , each conducted with thr ee techni cal replicates.

A. baumannii 5075 [4] = assay: Checkerboard assay; assay type: cell-based; conditions: 5075; for MIC: Acinetobacter baumannii; for Interaction of the antibiotic with KM-5–25: checkerboard
Method: To carry out the serial dilution from the highest compound concentration, a 150 μ L solution of higher concentration compound or antibiotic was mixed with 150 μ L of cell suspension containing […] Th e 96 well plate was in cubated for 20 hat 35 °C with continuous orbital shaking (205 cpm) in an Epoch2 microplate reader (BioTek), monitoring the growth by following the OD600. […] All assays were p erfo rmed in three biological replicates, each with three […] replicates. Checkerboard Assay. […] CFU/mL. […] in the vertical and hori zontal direction, respectivel y. Bacterial suspensions were […] escrib ed above fo r the MIC determination and added to the plates. […] The 96-well […] cubated for 20 h at 35 °C with continuous orbital shaking (205 cpm) in an Epoch2 microplate reader (BioTek), monitoring the growth by following the OD600. The MIC values of inhibitor and antibiotic were obtained from the corresponding row or column which contained only one component, whereas the remaining rows and columns were utilized for calculating the fractional inhibitory concentration index (FIC) with the aid of equation […] = […]2 Time Kill Assays. Time-kill assays were performed with A. baumannii 507 5 by the broth macro- dilution method […] An overnight culture was diluted to approximately 5 x10^5 CFU/mL in fresh […] media. […] DMSO, or by the addition of antibiotic dissolved in water and a small volume of DMSO to produce the desired S7

Pa Bfr = conditions: earlier work, reference number not given; read-out: Kd of Pa Bfd binding to Pa Bfr; cited from earlier work
[5] = agent alone, KM-5–35 14 μg/mL = 40 μM

T1 sequence (Q9HY79 whole entry): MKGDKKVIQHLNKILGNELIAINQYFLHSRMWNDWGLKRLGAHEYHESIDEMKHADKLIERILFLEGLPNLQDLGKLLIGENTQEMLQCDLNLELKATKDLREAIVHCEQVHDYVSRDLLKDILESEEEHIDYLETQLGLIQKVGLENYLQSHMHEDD

## O=C1NC(=O)c2c(NCc3ccc(O)cc3O)cccc21 [BN-16-69]
[1]
  stability in aqueous solution: unstable in aqueous solution
[2]
  Solubility: Unstable

## O=C1NC(=O)c2c(NCc3c(O)cccc3O)cccc21 [BN-16-70]
[1]
  stability in aqueous solution: unstable in aqueous solution
[2]
  Solubility: Unstable

## O=C1NC(=O)c2c(NCc3cc(O)ccc3O)cccc21 [EB-5-93]
[1]
  stability in aqueous solution: unstable in aqueous solution
[2]
  Solubility: Unstable

## Cc1cccc(O)c1CNc1cccc2c1C(=O)NC2=O [SB-15-171]
[2]
  Solubility: Unstable

## Cc1ccc(O)c(CNc2ccc(Br)c3c2C(=O)NC3=O)c1 [SB-16-122]
A. baumannii ATCC 17978; 20 h
  MIC: 20 µM (≈ 7.22 µg/mL)
A. baumannii ATCC 19606; 20 h
  MIC: 20 µM (≈ 7.22 µg/mL)
A. baumannii 5075 [3]; 20 h
  MIC: 20 µM (≈ 7.22 µg/mL)
[2]
  solubility at 4 h: 40 µM (≈ 14.4 µg/mL)
Recombinant Pa BfrB
  Kd: 5 ± 1 µM
P. aeruginosa PAO1; planktonic cells
  IC50: 19 ± 4 µM

## O=C1NC(=O)c2c(NCc3cc(O)c(Br)cc3O)cccc21 [SB-16-186]
[2]
  Solubility: Unstable

## O=C1NC(=O)c2c(NCC3CCOCC3)cccc21 [SB-16-237]
A. baumannii ATCC 17978; 20 h
  MIC: > 100 µM
A. baumannii ATCC 19606; 20 h
  MIC: > 100 µM
A. baumannii 5075 [3]; 20 h
  MIC: > 100 µM
[2]
  solubility at 4 h: 100 µM (≈ 26 µg/mL)
Recombinant Pa BfrB
  Kd: 42 ± 10 µM
P. aeruginosa PAO1; planktonic cells
  IC50, P. aeruginosa PAO1: Not active

## O=C1NC(=O)c2c(NCc3ccc4[nH]ccc4c3)cccc21 [SB-17-16]
[2]
  Solubility: Not soluble

## O=C1NC(=O)c2c(NCc3cccc4[nH]ccc34)cccc21 [SB-17-75]
A. baumannii ATCC 17978; Acinetobacter baumannii, ATCC17978, 20 h
  MIC: 60 µM (≈ 17.5 µg/mL)
A. baumannii ATCC 19606; Acinetobacter baumannii, ATCC19606, 20 h
  MIC: 30 µM (≈ 8.74 µg/mL)
A. baumannii 5075 [3]; Acinetobacter baumannii, 5075, 20 h
  MIC: 30 µM (≈ 8.74 µg/mL)
[2]; M63 media with 1.5% DMSO, 35 °C, aqueous buffer, kinetic from dmso stock
  solubility at 4 h: 60 µM (≈ 17.5 µg/mL)
Recombinant Pa BfrB
  Kd: 15 ± 2 µM
P. aeruginosa PAO1; Pseudomonas aeruginosa, PAO1, planktonic cells
  IC50: 32 ± 13 µM

## Cn1ccnc1CNc1cccc2c1C(=O)NC2=O [SB-17-95]
A. baumannii ATCC 17978; 20 h
  MIC, A. baumannii 17978: Not active
A. baumannii ATCC 19606; 20 h
  MIC, A. baumannii 19606: Not active
A. baumannii 5075 [3]; 20 h
  MIC, A. baumannii 5075: Not active
[2]
  solubility at 4 h: 100 µM (≈ 25.6 µg/mL)
Recombinant Pa BfrB
  Kd: 57 ± 6 µM
P. aeruginosa PAO1; planktonic cells
  IC50, P. aeruginosa PAO1: Not active

## O=C1NC(=O)c2c(NCc3ccc4c(c3)CCO4)cccc21 [SB-17-98]
[2]
  Solubility: Not soluble

## O=C1NC(=O)c2c(NCc3ccc4occc4c3)cccc21 [SB-17-109]
[2]
  Solubility: Not soluble

## O=C1NC(=O)c2c(NCc3cccc4c3CCO4)cccc21 [SB-17-110]
[2]
  Solubility: Not soluble

## Cn1ccc2ccc(CNc3cccc4c3C(=O)NC4=O)cc21 [SB-17-114]
[2]
  Solubility: Not soluble

## CC(C)(O/N=C(\C(=O)N[C@@H]1C(=O)N2C(C(=O)[O-])=C(C[n+]3ccccc3)CS[C@H]12)c1csc(N)n1)C(=O)O [ceftazidime, reference compound]
A. baumannii 5075 [4]; [5]
  MIC: 256 µg/mL

## O=C(O)c1cn(C2CC2)c2cc(N3CCNCC3)c(F)cc2c1=O [ciprofloxacin, reference compound]
A. baumannii 5075 [4]; [5]
  MIC: 128 µg/mL

## C[C@@H](O)[C@H]1C(=O)N2C(C(=O)O)=C(SCCN=CN)C[C@H]12 [imipenem, reference compound]
A. baumannii 5075 [4]; [5]
  MIC: 1 µg/mL
A. baumannii 5075 [4]
  Interaction of the antibiotic with KM-5–25: additive

## C[C@@H](O)[C@H]1C(=O)N2C(C(=O)O)=C(S[C@@H]3CN[C@H](C(=O)N(C)C)C3)[C@H](C)[C@H]12 [meropenem, reference compound]
A. baumannii 5075 [4]; [5]
  MIC: 2 µg/mL

## NC[C@H]1O[C@H](O[C@H]2[C@H](O)[C@@H](O[C@H]3O[C@H](CO)[C@@H](O)[C@H](N)[C@H]3O)[C@H](N)C[C@@H]2N)[C@H](N)C[C@@H]1O [tobramycin, reference compound]
A. baumannii 5075 [4]; [5]
  MIC: 512 µg/mL

## colistin [reference compound]
A. baumannii 5075 [4]; [5]
  MIC alone: 1 µg/mL
A. baumannii 5075 [4]
  Interaction of the antibiotic with KM-5–25: synergy

B1: Pa Bfd: Bfr associated ferredoxin that binds Pa Bfr (protein, UniProt Q9HY80 1-73, looked up)
Bacterioferritin-associated …: MYVCLCQGVTDNQIRDAIYEGCCSYREVREATGVGTQCGKCACLAKQVVRETLNDLQSAQPVPAFGTTAFVAA
Pa Bfr
  Kd: 4.7 µM
